This note sets out measurements from US20190284129A1, “LIPID COMPOUNDS AND COMPOSITIONS AND THEIR OPTHALMIC USE” (BIOZEP AS, priority 2015, published 2019).

Holding throughout (type): cell-based
Series [1] has as its target T1, human PPARalpha receptor (Homo sapiens, UniProt Q07869).
T1 construct: expressed in transfected cells; host or cells: HEK293 (DSMZ ACC 305)
T1 sequence (Q07869 239-466 limits assumed): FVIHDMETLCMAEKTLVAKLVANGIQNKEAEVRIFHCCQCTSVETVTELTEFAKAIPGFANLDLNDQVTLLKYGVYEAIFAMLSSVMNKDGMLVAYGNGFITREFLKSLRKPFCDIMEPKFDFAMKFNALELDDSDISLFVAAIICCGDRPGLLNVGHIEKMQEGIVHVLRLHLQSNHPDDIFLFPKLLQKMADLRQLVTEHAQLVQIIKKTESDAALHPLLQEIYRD
The experiment in a line: cellular GAL4 reporter gene assay (M1H) in HEK293 cells, PPARalpha. Particulars: agonist mode; for Efficacy vs. Fenofibric Acid / Efficacy vs. GW7647: HEK293; for EC50: HEK293, GAL4 reporter. As to the method:
The compounds BIZ-102 (Example 2), BIZ-103 (Example 5) and BIZ-106 were tested at the human PPARalpha receptor in a cellular GAL4 Reporter gene assay. The assay was run in agonist and antagonist mode to detect agonistic as well as antagonistic activities of the tested compounds.
Performance of the GAL4 cellular reporter assay:
Day 1: Cells were seeded in 96 well plates in plating medium (MEM with serum), incubation overnight at 37° C., 5% CO2.
Day 2: Removal of plating medium
Addition of PEI-based transfection agent
Incubation for 4-6 hours at 37° C., 5% CO2
Addition of assay medium (MEM with serum)
Addition of compounds (dilution series was generated in MEM with serum)
Incubation overnight at 37° C., 5% CO2
Day 3: Removal of assay medium (16-20 hours after compound addition)
Addition of Passive Lysis Buffer (Promega)
15 mins incubation at room temperature
Addition of luciferase buffers and measurement in a dual-flash procedure
(§1) The assays were done in HEK293 cells (DSMZ ACC 305). The plasmids used in the GAL4 assay system were derivatives of Stratagene's M2H plasmids: the reporter plasmid pFR-Luc (containing a synthetic promoter with five tandem repeats of the yeast GAL4 binding sites that control expression of the Photinus pyralis (American firefly) luciferase gene), and pCMV-BD (for fusions of nuclear receptor ligand binding domains to the DNA-binding domain of the yeast protein GAL4). In order to improve experimental accuracy, a second reporter—Renilla reniformis luciferase, driven by a constitutive promoter—was included as an internal control. Using the control reporter (Renilla Luciferase) allowed corrections for variations in experimental handling, e.g. transfection efficacy, cell viability, pipetting errors, cell lysis efficiency and assay efficiency.
Primary read out of the assays was loaded into PhAST (Phenex Assay and Screening Tool) and checked for assay quality (generation of SB and Zprime values). […] Within PhAST there are two measured and one calculated data layers:
LAYER1 (measured)—contains the activity values of the firefly luciferase activities and is a direct measure for modulation of the cofactor binding properties of the Nuclear Receptors by the tested compounds.
LAYER2 (measured)—contains the activity values of the renilla luciferase activities and is used as normalisation layer. As the renilla luciferase is expressed under control of the constitutively active CMV promoter, moderate well-to-well differences can be used to correct for variations in experimental handling.
LAYER3 (calculated)—is calculated according to the following equation: […]
1000*Firefly luciferase value/Renilla luciferase value
These normalised values are, as well as LAYER1, a measure for the modulation of the cofactor binding properties of the nuclear receptors by the tested compounds.

Series [2] has as its system ARPE-19 cells. The series can be described thus: oxidative stress (tert-butyl hydroperoxide) cytolysis assay in ARPE-19 retinal pigment epithelial cells. Particulars: fenofibric acid 25 μM, BIZ-101 10 μM. On the procedure: In order to evaluate the potential of BIZ-101 to protective the eye from oxidative stress damage the compound was tested in a cell based assay. Oxidative stress was induced in an ARPE-19 cell line using tert-butyl hydroperoxide at different concentrations. The cellular viability was kinetically monitored and measured by analysing the plasma membrane integrity based on the incorporation of a non-permeant and fluorescent DNA intercalating agent that selectively stain cytolytic cells with comprised plasma membranes.
(§2) The ARPE-19 cell line was seeded and cultured in DMEM-F12 medium+10% SVF for 24 hrs in a 96 well plate. Cells were pre-treated or not with either fenofibric acid (25 μM) or compound BIZ-101 (10 μM) during this 24 hr period. After 24 hrs, the different concentrations of t-butyl hydroperoxide were added in the presence of a fluorescent DNA intercalating agent for the following monitoring. Live content time-lapse imaging was performed with a sampling rate of 1 image every 2 hr over a 96 hrs period. The number of fluorescent/cytolytic cells were counted and reported during the experiment. The treatment conditions were tested in one experiment session in a triplicate format.
Fenofibric acid was used at 25 μM and was ordered from Sigma Aldrich. The day of the pre-treatment, a 25 mM stock solution of fenofibric acid was prepared in DMSO and diluted in the complete culture medium at 25 μM. 100 μL of this solution or 100 μL of complete culture medium+0.1% DMSO replaced the 100 μL of the complete culture medium already present in the well. The day of the treatment with t-butyl hydroperoxide, a 2 times concentrated solution of fenofibric acid was freshly diluted in the complete culture medium and 50 μL of this solution or 50 μL of complete culture medium+0.2% DMSO were added to the 100 μL of the culture medium already present in the well.
Compound BIZ-101 was tested at a final concentration of 10 μM. A 10 mM predilution was prepared in DMSO from a 10 mM stock solution. The 10 mM solution of BIZ 101 was diluted in the complete culture medium at 10 μM. 100 μL, of this solution or 100 μL of the complete culture medium+0.1% DMSO replaced the 100 μL, of the complete culture medium already present in the well. The day of the treatment with t-butyl hydroperoxide, a 2 times concentrated solution of BIZ 101 was freshly diluted in the complete culture medium and 50 μL of this solution or 50 μL of complete culture medium+0.2% DMSO were added to the 100 μL of the culture medium already present in the well.
Preparation of the tert-butyl hydroperoxide [tBHP] solution: 0, 0.01 mM, 0.03 mM, 0.1 mM, 0.3 mM, 1 mM, 3 mM and 10 mM. A 4 times concentrated solution of tBHP was freshly diluted in the complete culture medium for each of the concentrations to be tested. 50 μL of the 4 times concentrated solution was added to the 150 μL of the cultured medium.
In order to evaluate the potential of BIZ-102 to protect the eye from oxidative stress damage the compound was tested in a cell based assay similar to Example 24 with the following changes. The oxidative stress in the ARPE-19 cell line was induced by using 3 different concentrations of tBHP: 10 μM, 30 μM and 100 μM and BIZ-102 was tested in 2 different concentrations: 1 μM and 10 μM.
as §2, with “with” for “with either fenofibric acid (25 μM) or”, “BIZ-102 (1 μM and 10” for “BIZ-101 (10”
Compound BIZ-102 was tested at a final concentration of 1 and 10 μM. […]

In series [3] the target is T2, human PPARbeta/delta (Homo sapiens, UniProt Q03181).
T2 construct: expressed in transfected cells; host or cells: HEK293 (DSMZ ACC 305)
T2 sequence (Q03181 211-439 limits assumed): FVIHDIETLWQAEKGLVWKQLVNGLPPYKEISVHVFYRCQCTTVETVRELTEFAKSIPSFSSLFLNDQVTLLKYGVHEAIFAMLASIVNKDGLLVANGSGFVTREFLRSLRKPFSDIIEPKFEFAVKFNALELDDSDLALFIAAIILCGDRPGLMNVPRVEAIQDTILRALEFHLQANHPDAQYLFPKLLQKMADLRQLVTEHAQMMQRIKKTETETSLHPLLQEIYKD
The series can be described thus: cellular GAL4 reporter gene assay, agonist mode, PPARbeta/delta.
From the text: as §1, with “M2H” left out, “reporter-Renilla” for “reporter—Renilla”, “promoter-was” for “promoter—was”, “efficiency. […] The compounds BIZ-102 and BIZ-103 were tested at the human PPARbeta/delta and PPARgamma receptors using the same cellular GAL4 Reporter gene assays as in Example 6. The assays were run in agonist mode to detect agonistic activities of the tested compounds.” for “efficiency.”

For series [4], the target named is T3, human PPARgamma (Homo sapiens, UniProt P37231).
T3 construct: expressed in transfected cells; host or cells: HEK293 (DSMZ ACC 305)
T3 sequence (P37231 238-503 limits assumed): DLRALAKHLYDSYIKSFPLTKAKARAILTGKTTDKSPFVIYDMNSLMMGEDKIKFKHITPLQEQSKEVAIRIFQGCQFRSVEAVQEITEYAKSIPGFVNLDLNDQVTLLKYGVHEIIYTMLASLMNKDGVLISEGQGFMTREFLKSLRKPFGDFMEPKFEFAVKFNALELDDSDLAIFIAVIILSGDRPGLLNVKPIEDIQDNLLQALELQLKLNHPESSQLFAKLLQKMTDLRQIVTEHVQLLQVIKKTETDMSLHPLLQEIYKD
The series can be described thus: cellular GAL4 reporter gene assay, agonist mode, PPARgamma.
From the text: as §1, with “M2H” left out, “reporter-Renilla” for “reporter—Renilla”, “promoter-was” for “promoter—was”, “efficiency. […] The compounds BIZ-102 and BIZ-103 were tested at the human PPARbeta/delta and PPARgamma receptors using the same cellular GAL4 Reporter gene assays as in Example 6. The assays were run in agonist mode to detect agonistic activities of the tested compounds.” for “efficiency.”

For series [5], the system named is NF-κB pathway. The experiment in a line: NF-κB luciferase reporter assay in NF-κB Reporter-HEK293 cells, TNFa stimulated. Particulars: FIG. 5. The text has this:
The NF-κB reporter (luc)-HEK293 cell line is designed for monitoring the nuclear factor Kappa B (NF-κB) signal transduction pathways. It contains a firefly luciferase gene driven by four copies of NF-κB response element located upstream of the minimal TATA promoter. After activation by pro-inflammatory cytokines or stimulants of lymphokine receptors, endogenous NF-κB transcription factors bind to the DNA response elements, inducing transcription of the luciferase reporter gene.
NF-κB Reporter-HEK293 cells were cultured in MEM medium with 10% FBS, 1% non-essential amino acids, 1 mM Na-pyruvate, 1% Penn-strep, and 100 µg/ml of Hygromycin B.
To perform the NF-κB luciferase reporter assay, NF-κB Reporter-HEK293 cells were seeded at 40,000 cells per well into white clear-bottom 96-well microplate in 45 μl of growth medium without Hygromycin B. Cells were incubated at 37° C. and 5% CO2 overnight to allow them to recover and reattach. The following day a series of dilutions of compounds were made in assay medium (MEM medium with 0.5% FBS, 1% non-essential amino acids, 1 mM Na-pyruvate, 1% Penn-strep). The medium was removed from the wells and 45 μl of diluted compound was added to the cells. Assay medium with DMSO was added to the untreated control wells and cell-free control wells. The final concentration of DMSO was 0.25%. The cells were incubated overnight at 37° C. in CO2 incubator. […]
After treatment, cells were then lysed and a luciferase assay was performed using the ONE-Step luciferase assay system. […] Luminescence was measured using a luminometer (BioTek Synergy™ 2 microplate reader).
Reporter assays were performed in triplicate at each concentration. The luminescence intensity data were analyzed using the computer software, Graphpad Prism. In the absence of the compound, the luminescence intensity (Lt) in each data set was defined as 100%. In the absence of cells, the luminescence intensity (Lb) in each data set was defined as 0%. The percent luminescence in the presence of each compound was calculated according to the following equation: % Luminescence=(L−Lb)/(Lt−Lb), where L=the luminescence intensity in the presence of the compound, Lb=the luminescence intensity in the absence of cells, and Lt=the luminescence intensity in the absence of the compound. The values of % luminescence versus a series of compound concentrations were then plotted using non-linear regression analysis of a Sigmoidal dose-response curve generated with the equation Y=B+(T B)/1+10^((Log EC50-X)×Hill Slope), where Y=percent luminescence, B=minimum percent luminescence, T=maximum percent luminescence, X=logarithm of compound and Hill Slope=slope factor or Hill coefficient. The IC50 value was determined by the concentration causing a half-maximal percent activity.

Where “and” joins values, the source holds several entries; their conditions need not be identical. Equal entries are not always repeated.

Take `CCCCC/C=C\C/C=C\C/C=C\C/C=C\CCCC(=O)O` [BIZ-107]: in series [1], the “Efficacy vs. Fenofibric Acid” value is reported as 30%; the “Efficacy vs. GW7647” value turned out to be 100%; the EC50 was ~26 µM and 26 µM.

`CC(C)(Oc1ccc(C(=O)c2ccc(Cl)cc2)cc1)C(=O)O` [fenofibric acid, reference compound]: in series [1], the EC50 lay within 10 to 18 µM. Moreover, the “dose dependent cytotoxicity of tBHP” value in series [2] (6 hrs after addition of tBHP, 24 hr pre-treatment) is given as “slightly decreased”. For the same molecule, the “protective effects against tBHP cytotoxicity” value in series [2] (24 hrs after addition of t-BHP) is on record as “more efficient”.

`CCCCCCCCCCCCCCSC(C)C(=O)O` (centres unmarked) [BIZ-103]: in series [1], the “Efficacy vs. Fenofibric Acid” value amounted to 55% and the “Efficacy vs. GW7647” value is listed as 180%. In series [3], the EC50 was found to be 8.9 µM and the “PPARbeta/delta efficacy vs. GW501516” value is 18%. Moreover, in series [4], a half-maximal response (EC50) required 1.6 µM and the “PPARgamma efficacy vs. Rosiglitazone” value is listed as 20%.

Take `CC/C=C\C/C=C\C/C=C\C/C=C\C/C=C\CCCCOC(CC)C(=O)O` (centres unmarked) [BIZ-110, 2-((5Z,8Z,11Z,14Z,17Z)-icosa-5,8,11,14,17-pentaen-1-yloxy) butanoic Acid]: in series [5], the “dose dependence of inhibitory effect on the NF-κB pathway” value is recorded as “dose dependent”. Further, the “complete inhibition of the NF-κB pathway” value in series [5] (at high concentration) is listed as “completely inhibited”.

On to `CC/C=C\C/C=C\C/C=C\C/C=C\C/C=C\C/C=C\CC(CC)C(=O)O` (centres unmarked) [BIZ-106, 2-ethyl (4Z,7Z,10Z,13Z,16Z,19Z)-docosa-4,11,10,13,16,19-hexaenoic Acid], for which, in series [1], the “Efficacy vs. Fenofibric Acid” value came to 25%; the “Efficacy vs. GW7647” value was determined as 80%; the EC50 was ~5 µM and 5 µM.
